Tests used:
Human CARM1 (PRMT4) = target: T1, Human CARM1 (PRMT4) (Homo sapiens, UniProt Q86X55); test: CARM1 enzyme assay on peptide substrates (3H-SAM Flashplate); conditions: Biochemical assay; CARM1 0.25 nM, 3H-SAM 30 nM, peptide 250 nM; read-out: Biochem IC50
T1 construct: Flag-CARM1-His was eluted with 200 ug/ml FLAG peptide in buffer A; made in house; host or cells: HEK 293F cells infected with recombinant baculovirus (pFastBacMam)
T1 sequence (Q86X55 1-585 isoform Q86X55-1): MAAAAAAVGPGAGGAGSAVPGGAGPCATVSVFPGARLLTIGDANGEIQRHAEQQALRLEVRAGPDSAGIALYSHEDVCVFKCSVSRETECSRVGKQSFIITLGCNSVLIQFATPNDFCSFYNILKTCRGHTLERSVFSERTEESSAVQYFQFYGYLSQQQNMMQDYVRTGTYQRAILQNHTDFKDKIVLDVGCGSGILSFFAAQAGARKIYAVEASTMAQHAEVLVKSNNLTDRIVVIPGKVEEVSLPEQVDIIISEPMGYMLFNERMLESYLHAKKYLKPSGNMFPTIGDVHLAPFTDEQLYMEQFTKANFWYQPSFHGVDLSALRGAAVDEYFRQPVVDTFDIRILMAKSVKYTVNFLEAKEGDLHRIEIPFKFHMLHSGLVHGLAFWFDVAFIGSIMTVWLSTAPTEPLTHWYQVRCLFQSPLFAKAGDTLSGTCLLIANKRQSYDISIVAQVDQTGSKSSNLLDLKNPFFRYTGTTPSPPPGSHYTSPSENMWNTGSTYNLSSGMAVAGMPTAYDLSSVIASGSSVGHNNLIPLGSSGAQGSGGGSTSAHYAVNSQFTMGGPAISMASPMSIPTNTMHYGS

[1] = system: asymmetric di-methyl PABP1 in RKO cells; test: RKO methylation assay: In Cell Western (ICW) for asymmetric di-methyl PABP1 (PABP1me2a); conditions: Homo sapiens, RKO, 48 h, Cellular-based (PABP1me2a) ICW (In Cell Western) assay
Summary of the method: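 In-cell western on compound-exposed RKO cells (48 hours): asymmetric di-methyl PABP1 detected by antibody at 800 nm, DNA content by DRAQ5 at 700 nm. Percent inhibition from signal ratios against DMSO (minimum) and 20 μM reference compound (maximum) wells; IC50 curves fitted from triplicates.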

Row | SMILES | IC50 (Human CARM1 (PRMT4)) | IC50 [1]
1 | CNC[C@@H](O)COc1ccc(Cl)c(-c2nc(-c3c(C)noc3C)c(C)c(N3CC4(CCC(C(=O)N5CCC5)CC4)C3)n2)c1 [Example 174] | 3.9 nM | 271 nM
2 | CCc1onc(C)c1-c1nc(-c2cc(OC[C@H](O)CNC)ccc2Cl)nc(N2Cc3cnc(N4CCC4)nc3C2)c1C [Example 175] | 1.7 nM | 13 nM
3 | CCOC(=O)N1CC2=C(C1)CN(c1nc(-c3cc(OC[C@H](O)CNC)ccc3Cl)nc(-c3c(C)noc3C)c1C)C2 [Example 176] | 2.7 nM | 26 nM
4 | CNC[C@@H](O)COc1ccc(Cl)c(-c2nc(-c3c(C)noc3C)c(C)c(N3CC4=C(CN(C(=O)N(C)C)C4)C3)n2)c1 [Example 177] | 3.6 nM | 87 nM
5 | CNC[C@@H](O)COc1ccc(Cl)c(-c2nc(-c3c(C)c(Cl)nn3C)c(C)c(N3Cc4cnc(OCCOC)nc4C3)n2)c1 [Example 178] | 1.4 nM | 24 nM
6 | CCc1onc(C)c1-c1nc(-c2cc(OC[C@H](O)CNC)ccc2Cl)nc(N2CC3(CCN(C(=O)OC)CC3)C2)c1C [Example 179] | 5.1 nM | 119 nM
7 | CNC[C@@H](O)COc1ccc(Cl)c(-c2nc(-c3c(C)noc3C)c(C)c(N3CC4(CCN(C(=O)OCC(F)F)C4)C3)n2)c1 [Example 180] | 4.1 nM | 121 nM
8 | CNC[C@@H](O)COc1ccc(Cl)c(-c2nc(-c3c(C)noc3C)c(C)c(N3Cc4cnc(N5CCOC5=O)nc4C3)n2)c1 [Example 181] | 1.8 nM | 459 nM
9 | CNC[C@@H](O)COc1ccc(Cl)c(-c2nc(-c3c(C)noc3C)c(C)c(N3Cc4cnc(N(C)C)cc4C3)n2)c1 [Example 183] | 1.8 nM | 31 nM
10 | CNC[C@@H](O)COc1ccc(Cl)c(-c2nc(-c3c(C)noc3C)c(C)c(N3CC(F)(C(=O)N4CCC4)C3)n2)c1 [Example 184] | 6.1 nM | 488 nM
11 | CNC[C@@H](O)COc1ccc(Cl)c(-c2nc(-c3c(C)noc3C)c(C)c(N3CC(F)(C(=O)N(C)C)C3)n2)c1 [Example 185] | 5.1 nM | 346 nM
12 | CNC[C@@H](O)COc1ccc(Cl)c(-c2nc(-c3c(C)noc3C)c(C)c(N3Cc4ccnc(N(C)C)c4C3)n2)c1 [Example 186] | 1.8 nM | 49 nM
13 | CNC[C@@H](O)COc1ccc(Cl)c(-c2nc(-c3c(C)noc3C)c(C)c(N3CC(C)(C(=O)N4CCC4)C3)n2)c1 [Example 187] | 5.8 nM | 337 nM
14 | CNC[C@@H](O)COc1ccc(Cl)c(-c2nc(-c3c(C)noc3C)c(C)c(N3CC(C)(C(=O)N(C)C)C3)n2)c1 [Example 188] | 5.2 nM | 150 nM
15 | CCC1(C(=O)N2CCC2)CN(c2nc(-c3cc(OC[C@H](O)CNC)ccc3Cl)nc(-c3c(C)noc3C)c2C)C1 [Example 189] | 5.7 nM | 246 nM
16 | CCC1(C(=O)N(C)C)CN(c2nc(-c3cc(OC[C@H](O)CNC)ccc3Cl)nc(-c3c(C)noc3C)c2C)C1 [Example 190] | 6.2 nM | 138 nM
17 | CNC[C@@H](O)COc1ccc(Cl)c(-c2nc(-c3c(C)noc3C)c(C)c(N3CC4(CCN(C(=O)OCC(F)F)CC4)C3)n2)c1 [Example 191] | 10.5 nM | 174 nM
18 | CNC[C@@H](O)COc1ccc(Cl)c(-c2nc(-c3c(C)c(Cl)nn3C)c(C)c(N3CC4(CCN(C(=O)OC)CC4)C3)n2)c1 [Example 192] | 4.7 nM | 58 nM
19 | CNC[C@@H](O)COc1ccc(Cl)c(-c2nc(-c3c(C)c(Cl)nn3C)c(C)c(N3CC4(CC(OC)C4)C3)n2)c1 [Example 193] | 4.1 nM | 52 nM
20 | CNC[C@@H](O)COc1ccc(Cl)c(-c2nc(-c3c(C)noc3C)c(C)c(N3Cc4cnc(N5CC[C@H]5C)nc4C3)n2)c1 [Example 194] | 1.8 nM | 13 nM
21 | CNC[C@@H](O)COc1ccc(Cl)c(-c2nc(-c3c(C)noc3C)c(C)c(N3Cc4cnc(N5CC[C@@H]5C)nc4C3)n2)c1 [Example 195] | 1.8 nM | 13 nM

Row | SMILES | IC50 (Human CARM1 (PRMT4)) | IC50 [1]
22 | CNC[C@@H](O)COc1ccc(Cl)c(-c2nc(-c3c(C)noc3C)c(C)c(N3Cc4ccc(N5CCOCC5)nc4C3)n2)c1 [Example 196] | 2 nM | 20 nM
23 | CNC[C@@H](O)COc1ccc(Cl)c(-c2nc(-c3c(C)noc3C)c(C)c(N3Cc4cnc(NCCO)nc4C3)n2)c1 [Example 197] | 2.6 nM | 381 nM
24 | CNC[C@@H](O)COc1ccc(Cl)c(-c2nc(-c3c(C)noc3C)c(C)c(N3CC4=C(C3)CN(c3nc(-c5cc(OC[C@H](O)CNC)ccc5Cl)nc(-c5c(C)noc5C)c3C)C4)n2)c1 [Example 198] | 0.4 nM | 171 nM
25 | CCOc1ncc2c(n1)CN(c1nc(-c3cc(OC[C@H](O)CNC)ccc3Cl)nc(-c3c(C)noc3CC)c1C)C2 [Example 199] | 5.7 nM | 84 nM
26 | CNC[C@@H](O)COc1ccc(Cl)c(-c2nc(-c3c(C)noc3C)c(C)c(N3Cc4ccnc(C)c4C3)n2)c1 [Example 200] | 2.1 nM | 47 nM
27 | CNC[C@@H](O)COc1ccc(Cl)c(-c2nc(-c3c(C)noc3C)c(C)c(N3CCN(CC(F)(F)F)CC3)n2)c1 [Example 201] | 4.8 nM | 295 nM
28 | CC[C@@H]1CN(c2nc(-c3cc(OC[C@H](O)CNC)ccc3Cl)nc(-c3c(C)noc3C)c2C)CCN1S(C)(=O)=O [Example 202] | 3.3 nM | 233 nM
29 | CC[C@@H]1CN(c2nc(-c3cc(OC[C@H](O)CNC)ccc3Cl)nc(-c3c(C)noc3C)c2C)CCN1CC(F)F [Example 203] | 4.6 nM | 200 nM
30 | CC[C@H]1CN(c2nc(-c3cc(OC[C@H](O)CNC)ccc3Cl)nc(-c3c(C)noc3C)c2C)CCN1S(C)(=O)=O [Example 204] | 4.3 nM | 486 nM
31 | CC[C@@H]1CN(c2nc(-c3cc(OC[C@H](O)CNC)ccc3Cl)nc(-c3c(C)noc3C)c2C)CCN1C(=O)OC [Example 205] | 3.7 nM | 202 nM
32 | CC[C@H]1CN(c2nc(-c3cc(OC[C@H](O)CNC)ccc3Cl)nc(-c3c(C)noc3C)c2C)CCN1C(=O)OC [Example 206] | 5.4 nM | 696 nM
33 | CCc1onc(C)c1-c1nc(-c2cc(OC[C@H](O)CNC)ccc2Cl)nc(N2Cc3cccnc3C2)c1C [Example 207] | 1.5 nM | 74 nM
34 | CNC[C@@H](O)COc1ccc(Cl)c(-c2nc(-c3c(C)noc3C)c(C)c(N3CC4(C3)CC(OC)(C(F)(F)F)C4)n2)c1 [Example 208] | 5.2 nM | 142 nM
35 | CNC[C@@H](O)COc1ccc(Cl)c(-c2nc(-c3c(C)noc3C)c(C)c(N3Cc4nccc(N(C)C)c4C3)n2)c1 [Example 209] | 0.6 nM | 129 nM
36 | CNC[C@@H](O)COc1ccc(Cl)c(-c2nc(-c3c(C)noc3C)c(C)c(N3Cc4nc(C5CC5)oc4C3)n2)c1 [Example 210] | 2.1 nM | 120 nM
37 | CNC[C@@H](O)COc1ccc(Cl)c(-c2nc(-c3c(C)noc3C)c(C)c(N3CC4=C(C3)CN(C3CC3)C4)n2)c1 [Example 211] | 1.7 nM | 75 nM
38 | CNC[C@@H](O)COc1ccc(Cl)c(-c2nc(-c3c(C)noc3C)c(C)c(N3Cc4ccnc(OC)c4C3)n2)c1 [Example 212] | 2.1 nM | 40 nM
39 | CNC[C@@H](O)COc1ccc(Cl)c(-c2nc(-c3c(C)noc3C)c(C)c(N3CC4(C3)CC(O)(C(F)(F)F)C4)n2)c1 [Example 213] | 5.4 nM | 330 nM
40 | CCN(C)c1nccc2c1CN(c1nc(-c3cc(OC[C@H](O)CNC)ccc3Cl)nc(-c3c(C)noc3C)c1C)C2 [Example 214] | 1.1 nM | 46 nM
41 | CNC[C@@H](O)COc1ccc(Cl)c(-c2nc(-c3c(C)c(Br)nn3C)c(C)c(N3CC4(CN(CC(F)(F)F)C4)C3)n2)c1 [Example 215] | 4.4 nM | 23 nM

Source: patent US20170305922A1, “CARM1 INHIBITORS AND USES THEREOF” (Epizyme, Inc., priority 2014, published 2017)
